Key:
[1] = system: anti-OVA IgE production in BALB/c mice; test: Suppressive effect on the IgE production against ovalbumin (OVA): anti-OVA IgE antibody titer (PCA titer); format: in vivo, mouse; conditions: BALB/c mice immunized with OVA, 40 mg/kg orally for 10 days; titer = highest 2^n serum dilution positive in rat PCA
Experimental: Suppressive effect on the IgE Production Against ovalbumin (OVA)
BALB/c mice (female, 8-10 weeks old) and Wistar rats (female, 8-10 weeks old) which were bought from Japan SLC, Inc. (Shizuoka) were used.
BALB/c mice were immunized by an intraperitoneal administration of 0.2 ml suspension of 2 μg of ovalbumin (OVA) and 2 mg of aluminium hydroxide gel in physiological saline. After 10 days, blood was collected from hearts, then sera were separated and stocked at −40° C. till the measurement of IgE antibody titer.
After the compound of the present invention was dissolved or suspended in N,N-dimethylacetoamide, the mixture was diluted 20 times with miglyol 812 neutral oil. The obtained solution was orally administered to mice at 0.1 ml per mouse (dose 40 mg/kg). The administration was continued for 10 days from the immunizing day to the day before the blood collection.
The obtained mouse serum was 2-fold diluted with physiological saline, then each 50 μl of the solution was intradermally injected at dorsal skin of Wistar rats which previously hair cut. After 24 hours, a passive cutaneous anaphylaxis reaction (PCA) was induced by an intravenous injection of 0.5 ml of physiological saline containing 1 mg of OVA and 5 mg of Evans' blue dye. The rats were sacrified 30 minutes later and the highest dilution giving bluing with a diameter of 5 mm or more was recorded as the PCA titer. […]

- melting point: 87 to 88 °C
SMILES: CC(C)=CCNc1ccc(-c2cc(C)c(-c3ccc(OCC=C(C)C)nc3)cc2C)c(F)c1 [Ib-250]
- PCA Titer [1]: 0

Source: patent US6562817B1, “Tricyclic compound” (Shionogi & Co., Ltd., priority 1998, dated 2003)
